# Values quoted from earlier work in PMC4360375 (Journal of Medicinal Chemistry, 2015).
# Tested on: GABA uptake, rat synaptosome
# Details: literature data set; ref 10.1021/jm00064a005; cited from earlier work
row,SMILES,pIC50
1,"O=C(O)[C@@H]1CCCN(CCC=C(c2ccccc2)c2ccccc2)C1 [(R)-SK&F-89976-A, OC(=O)[C@@H]1CCCN(C1)CC\C=C(\c1ccccc1)/c1ccccc1]",6.959
2,"Cc1ccsc1C(=CCCN1CCC[C@H](C(=O)O)C1)c1sccc1C [(S)-Tiagabine, s1ccc(C)c1\C(=C\CCN1C[C@H](CCC1)C(O)=O)\c1sccc1C]",6.658
3,"Cc1ccsc1C(=CCCN1CCC=C(C(=O)O)C1)c1sccc1C [An_1993_30, s1ccc(C)c1\C(=C\CCN1CC(=CCC1)C(O)=O)\c1sccc1C]",6.854
4,"Cc1ccccc1/C(=C\CCN1CCC[C@@H](C(=O)O)C1)c1sccc1C [An_1993_31, s1ccc(C)c1/C(=C/CCN1C[C@@H](CCC1)C(O)=O)/c1ccccc1C]",7.097
5,"Cc1ccccc1/C(=C\CCN1CCC[C@H](C(=O)O)C1)c1sccc1C [An_1993_32, s1ccc(C)c1/C(=C/CCN1C[C@H](CCC1)C(O)=O)/c1ccccc1C]",6.42
6,"Cc1ccccc1/C(=C\CCN1CCC=C(C(=O)O)C1)c1sccc1C [An_1993_33, s1ccc(C)c1/C(=C/CCN1CC(=CCC1)C(O)=O)/c1ccccc1C]",6.886
7,"Cc1ccccc1C(=CCCN1CCC[C@@H](C(=O)O)C1)c1ccccc1C [An_1993_34, OC(=O)[C@@H]1CCCN(C1)CC\C=C(\c1ccccc1C)/c1ccccc1C]",7.097
8,"O=C(O)C1=CCCN(CC/C=C(\c2ccccc2)c2cccs2)C1 [An_1993_36, s1cccc1/C(=C/CCN1CC(=CCC1)C(O)=O)/c1ccccc1]",6.577
9,"Cc1ccsc1/C(=C/CCN1CCC=C(C(=O)O)C1)c1ccc(Cl)cc1Cl [An_1993_37, Clc1cc(Cl)ccc1\C(=C/CCN1CC(=CCC1)C(O)=O)\c1sccc1C]",6.495
10,"Cc1ccsc1/C(=C/CCN1CCC=C(C(=O)O)C1)c1cc(Cl)cc(Cl)c1 [An_1993_38, Clc1cc(cc(Cl)c1)/C(=C\CCN1CC(=CCC1)C(O)=O)/c1sccc1C]",5.73
11,"Cc1ccsc1/C(=C/CCN1CCC[C@@H](C(=O)O)C1)c1cccs1 [An_1993_40, s1ccc(C)c1\C(=C\CCN1C[C@@H](CCC1)C(O)=O)\c1sccc1]",7.222
12,"Cc1ccsc1/C(=C/CCN1CCC[C@H](C(=O)O)C1)c1cccs1 [An_1993_41, s1ccc(C)c1\C(=C\CCN1C[C@H](CCC1)C(O)=O)\c1sccc1]",6.161
13,"Cc1ccsc1/C(=C/CCN1CCC=C(C(=O)O)C1)c1cccs1 [An_1993_42, s1ccc(C)c1\C(=C\CCN1CC(=CCC1)C(O)=O)\c1sccc1]",6.959
14,"Cc1cc(Cl)ccc1/C(=C\CCN1CCC[C@@H](C(=O)O)C1)c1sccc1C [An_1993_44, Clc1cc(C)c(cc1)\C(=C/CCN1C[C@@H](CCC1)C(O)=O)\c1sccc1C]",6.959
15,"Cc1cc(Cl)ccc1/C(=C\CCN1CCC=C(C(=O)O)C1)c1sccc1C [An_1993_45, Clc1cc(C)c(cc1)\C(=C/CCN1CC(=CCC1)C(O)=O)\c1sccc1C]",6.523
16,"Cc1ccsc1/C(=C/CCN1CCC[C@@H](C(=O)O)C1)c1c(C)cccc1C [An_1993_46, s1ccc(C)c1/C(=C/CCN1C[C@@H](CCC1)C(O)=O)/c1c(cccc1C)C]",6.602
17,"Cc1ccc(/C(=C\CCN2CCC[C@@H](C(=O)O)C2)c2sccc2C)c(C)c1 [An_1993_47, s1ccc(C)c1/C(=C/CCN1C[C@@H](CCC1)C(O)=O)/c1ccc(cc1C)C]",6.585
18,"Cc1ccsc1/C(=C/CCN1CCC=C(C(=O)O)C1)c1ccc(Cl)cc1 [An_1993_48, Clc1ccc(cc1)/C(=C\CCN1CC(=CCC1)C(O)=O)/c1sccc1C]",6.071
19,"Cn1cccc1/C(=C/CCN1CCC=C(C(=O)O)C1)c1ccccc1 [An_1993_49, OC(=O)C=1CN(CCC=1)CC\C=C(/c1ccccc1)\c1n(ccc1)C]",6.886

# Same assay, conditions: literature data set; ref 10.1021/jm981027k; cited from earlier work
row,SMILES,pIC50
1,"Cc1ccsc1C(=NOCCN1CCC[C@@H](C(=O)O)C1)c1sccc1C [An_1999/3_12, s1ccc(C)c1\C(=N\OCCN1C[C@@H](CCC1)C(O)=O)\c1sccc1C]",7.398
2,"Cc1csc(/C(=N/OCCN2CCC[C@@H](C(=O)O)C2)c2ccccc2C)c1 [An_1999/3_20, s1cc(cc1/C(=N/OCCN1C[C@@H](CCC1)C(O)=O)/c1ccccc1C)C]",6.108
